One assay relates to HCT116 cells. Nature of the assay: MTS cell viability assay HCT116. The conditions noted are these: Homo sapiens, HCT-116, 48 h, cell line scarcely expressing COX-2. In kind it is cell-based. The method, then:
(§1) Human colorectal cancer cell lines, HCT116 and HT29, and RAW 264.7 macrophages were obtained from ATCC (Manassas, VA). HCA7 colorectal cancer cell line was obtained from Sigma. HT29 and HCT116 cells were cultured in McCoy's 5 A medium (Sigma Aldrich, St. Louis, MO) containing 10% heat-inactivated foetal bovine serum (HI-FBS) (Gibco, USA), 100 μg/mL streptomycin (Invitrogen, USA), and […] penicillin (Invitrogen, USA)[40]. HCA7 and RAW 264.7 cells were cultured in Dulbecco's minimal essential media (DMEM, Invitrogen) containing 10% HI-FBS, sodium pyruvate (1 mM), penicillin ([…]), and streptomycin (100 mg/m)[41]^,[42].
(§2) Cells were cultured in 96‐well plates for 48 h and then treated with serum-free media containing different concentrations of the tested compounds (12.5, 25, 50, 100 and 150 µM). After 48 h., MTS reagent (Promega) was added as directed by the manufacturer, and then, the absorbance was measured at 495 nm. The absorbance is proportional to the number of viable cells. IC50 was calculated from the dose-response curves as described previously[45] using GraphPad Prism 8 software (GraphPad Software, San Diego, CA).
(In general: Tetrazolium assays rely on reduction of a dye to a coloured formazan, in cell work by metabolically active cells.)

In the next assay the test system is HCA7 cells. Nature of the assay: MTS cell viability assay HCA7. Type of assay: cell-based. The note with it: Homo sapiens, HCA-7, 48 h, cell line highly expressing COX-2. The method, then:
as §1, §2

The next assay addresses T1, ovine COX-1 (Ovis aries, UniProt P05979).
T1 sequence (P05979 25-600): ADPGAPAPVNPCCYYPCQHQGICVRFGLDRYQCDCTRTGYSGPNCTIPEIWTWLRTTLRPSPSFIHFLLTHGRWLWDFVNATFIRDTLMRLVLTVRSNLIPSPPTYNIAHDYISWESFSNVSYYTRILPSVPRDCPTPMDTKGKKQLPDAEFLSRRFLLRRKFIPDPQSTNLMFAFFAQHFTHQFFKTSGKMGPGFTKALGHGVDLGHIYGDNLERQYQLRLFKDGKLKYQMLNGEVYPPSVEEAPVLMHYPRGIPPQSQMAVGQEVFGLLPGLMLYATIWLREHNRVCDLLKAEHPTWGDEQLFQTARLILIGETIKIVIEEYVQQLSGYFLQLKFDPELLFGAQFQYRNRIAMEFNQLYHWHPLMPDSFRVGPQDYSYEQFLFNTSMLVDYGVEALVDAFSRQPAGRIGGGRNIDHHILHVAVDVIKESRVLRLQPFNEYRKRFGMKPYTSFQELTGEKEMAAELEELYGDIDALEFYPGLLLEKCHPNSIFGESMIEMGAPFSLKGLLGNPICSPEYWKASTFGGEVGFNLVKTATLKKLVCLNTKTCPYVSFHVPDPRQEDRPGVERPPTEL
Nature of the assay: In vitro COX-1 inhibitory assay (colorimetric Cayman kit).

The values below come from article PMC8330735 (Journal of Enzyme Inhibition and Medicinal Chemistry, 2021).

What is called IC50 is the concentration that gives 50% inhibition. Lower therefore signals greater potency in that assay.

Experimental for ovine COX-1: All the newly synthesised compounds were tested for their ability to inhibit COX-1 and COX-2 enzymes using a screening assay method.

Consider `NNC(=O)CSc1nc2ccccc2c(=O)n1NC(=O)Cc1ccccc1` [13b, N-(2-((2-hydrazinyl-2-oxoethyl)thio)-4-oxoquinazolin-3(4H)-yl)-2-phenylacetamide], for which the IC50 with HCT116 cells is over 150 µM; in the assay with HCA7 cells, over 150 µM; against ovine COX-1, 16.92 ± 0.16 µM.
With `CC(C)Cc1ccc(C(C)C(=O)NN2C(=O)c3ccccc3N(C)C2c2ccc([N+](=O)[O-])cc2)cc1` (stereo not drawn) [7c, 2-(4-Isobutylphenyl)-N-(1-methyl-2-(4-nitrophenyl)-4-oxo-1,4-dihydroquinazolin-3(2H)-yl) propenamide], the IC50 is over 150 µM in the assay on HCT116 cells, over 150 µM with HCA7 cells and 14.73 ± 0.13 µM on ovine COX-1.
